Test results from US12692269B2, “Therapeutic compounds” (Genentech, Inc., priority 2019, dated 2026).

What was measured:
Type in all cases: binding
[1] = molecular target: TEAD1 TAZ (amino acids 13-57) (Homo sapiens, UniProt P28347); test: TEAD1-TAZ HTRF (TR-FRET) protein-protein interaction assay; conditions: for TEAD1 TAZ HTRF combined: Max % Inhibition: TEAD1, TAZ peptide; for EC50: TEAD1-TAZ HTRF, TR-FRET 665 nm/615 nm, read-out: TEAD1 TAZ HTRF combined: EC50
Description: (§1) Purified His-tagged TEAD protein (YAP Binding Domain, amino acids 217-447) is pre-incubated with Europium labelled anti-His antibody tracer (Perkin Elmer Cat #AD0110). Small molecule Inhibitors are then incubated with the TEAD-Eu protein complex for 30 minutes to allow for binding to TEAD protein. Biotinylated YAP peptide for TEAD-YAP assays (AA's 50-100) or biotinylated TAZ peptide for TEAD-TAZ assays (AA's 13-57) that has been pre-incubated with streptavidin-xl665 acceptor (CIS-Bio Cat #610SAXAC) or is added to the compound-TEAD mix. The TEAD-YAP-inhibitor mixture is then incubated for 60 minutes at room temperature. All reactions are carried out in a polystyrene plate. After 60 minutes, the plate is read on a plate reader using TR-FRET mode with wavelengths of 665 nm/615 nm. If YAP or TAZ binds to TEAD as expected, a TR-FRET signal results from the proximity of YAP or TAZ and TEAD after binding. If an inhibitor such as peptide 17 (Selleckchem Cat #58164) interferes with YAP-TEAD or TAZ-TEAD binding, the disruption of the YAP or TAZ:TEAD interaction results in a decrease in TR-FRET signal. The potency of compounds as YAP:TEAD or TAZ:TEAD protein-protein interaction (PPi) inhibitors is determined by an IC50 or EC50 value generated using a non-linear four parameter curve fit.

TEAD3 YAP50-100 = TEAD3 YAP50-100 (Homo sapiens, UniProt Q99594); test: TEAD3-YAP HTRF (TR-FRET) protein-protein interaction assay; conditions: TEAD3, YAP peptide 50-100, HTRF; for EC50: read-out: TEAD3 YAP50-100 HTRF combined: EC50
Description: as §1

TEAD4 YAP50-100 = TEAD4 YAP50-100 (Homo sapiens, UniProt Q15561); test: TEAD4-YAP HTRF (TR-FRET) protein-protein interaction assay; conditions: TEAD4, YAP peptide 50-100, HTRF; for EC50: read-out: TEAD4 YAP50-100 HTRF combined: EC50
Description: as §1

[2] = molecular target: TEAD3 TAZ (amino acids 13-57) (Homo sapiens, UniProt Q99594); test: TEAD3-TAZ HTRF (TR-FRET) protein-protein interaction assay; conditions: for TEAD3 TAZ HTRF combined: Max % Inhibition: TEAD3, TAZ peptide; for EC50: TEAD3-TAZ HTRF, TR-FRET 665 nm/615 nm, read-out: TEAD3 TAZ HTRF combined: EC50
Description: as §1

[3] = molecular target: TEAD4 TAZ (amino acids 13-57) (Homo sapiens, UniProt Q15561); test: TEAD4-TAZ HTRF (TR-FRET) protein-protein interaction assay; conditions: for TEAD4 TAZ HTRF combined: Max % Inhibition: TEAD4, TAZ peptide; for EC50: TEAD4-TAZ HTRF, TR-FRET 665 nm/615 nm, read-out: TEAD4 TAZ HTRF combined: EC50
Description: as §1

[4] = molecular target: TEAD2 TAZ (amino acids 13-57) (Homo sapiens, UniProt Q15562); test: TEAD2-TAZ HTRF (TR-FRET) protein-protein interaction assay; conditions: for TEAD2 TAZ HTRF combined: Max % Inhibition: TEAD2, TAZ peptide; for EC50: TEAD2-TAZ HTRF, TR-FRET 665 nm/615 nm, read-out: TEAD2 TAZ HTRF combined: EC50
Description: as §1

TEAD1 YAP50-100 = TEAD1 YAP50-100 (Homo sapiens, UniProt P28347); test: TEAD1-YAP HTRF (TR-FRET) protein-protein interaction assay; conditions: TEAD1, YAP peptide 50-100, HTRF; for EC50: read-out: TEAD1 YAP50-100 HTRF combined: EC50
Description: as §1

TEAD2 YAP50-100 = TEAD2 YAP50-100 (Homo sapiens, UniProt Q15562); test: TEAD2-YAP HTRF (TR-FRET) protein-protein interaction assay; conditions: TEAD2, YAP peptide 50-100, HTRF; for EC50: read-out: TEAD2 YAP50-100 HTRF combined: EC50
Description: as §1

TEAD1 YAP50-100, sequence (P28347 167-426 limits assumed): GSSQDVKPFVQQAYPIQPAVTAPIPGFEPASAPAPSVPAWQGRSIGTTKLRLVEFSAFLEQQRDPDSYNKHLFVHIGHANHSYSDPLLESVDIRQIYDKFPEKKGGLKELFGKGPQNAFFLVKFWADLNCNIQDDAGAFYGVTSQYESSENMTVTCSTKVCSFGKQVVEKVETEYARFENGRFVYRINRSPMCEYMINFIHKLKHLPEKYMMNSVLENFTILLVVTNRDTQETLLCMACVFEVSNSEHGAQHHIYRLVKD
TEAD1 TAZ (amino acids 13-57), sequence (P28347 167-426 limits assumed): as above
TEAD3 YAP50-100, sequence (Q99594 173-435 limits assumed): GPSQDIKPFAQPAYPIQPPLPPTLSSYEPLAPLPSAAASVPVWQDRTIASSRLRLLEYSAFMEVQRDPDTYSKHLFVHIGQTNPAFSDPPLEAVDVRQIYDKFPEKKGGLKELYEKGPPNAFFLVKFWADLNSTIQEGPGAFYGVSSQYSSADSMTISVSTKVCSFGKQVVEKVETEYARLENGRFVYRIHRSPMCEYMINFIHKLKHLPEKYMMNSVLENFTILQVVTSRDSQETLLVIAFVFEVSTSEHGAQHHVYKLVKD
TEAD3 TAZ (amino acids 13-57), sequence (Q99594 173-435 limits assumed): as above
TEAD2 TAZ (amino acids 13-57), sequence (Q15562 217-447): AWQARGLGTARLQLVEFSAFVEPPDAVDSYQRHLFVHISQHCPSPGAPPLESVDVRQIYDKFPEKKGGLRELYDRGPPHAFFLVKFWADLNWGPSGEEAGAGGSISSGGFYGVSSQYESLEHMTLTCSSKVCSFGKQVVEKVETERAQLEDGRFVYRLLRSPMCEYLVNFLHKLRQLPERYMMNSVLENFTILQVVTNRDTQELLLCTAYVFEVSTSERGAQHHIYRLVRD
TEAD2 YAP50-100, sequence (Q15562 217-447): as above
TEAD4 TAZ (amino acids 13-57), sequence (Q15561 217-434 limits assumed): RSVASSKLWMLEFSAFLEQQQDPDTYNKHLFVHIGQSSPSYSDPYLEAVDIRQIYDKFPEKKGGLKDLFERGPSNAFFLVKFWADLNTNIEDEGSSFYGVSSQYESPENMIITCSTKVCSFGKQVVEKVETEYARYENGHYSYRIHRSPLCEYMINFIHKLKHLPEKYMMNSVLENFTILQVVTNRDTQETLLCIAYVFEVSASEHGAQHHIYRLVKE
TEAD4 YAP50-100, sequence (Q15561 217-434 limits assumed): as above

## Cc1nccnc1-c1nn2c(=O)cc(-c3ccc(CC(C)(C)C)cc3)[nH]c2c1C(=O)N1C[C@H](CF)[C@@H]1C (racemic) [Compound 73, 5-[4-(2,2-dimethylpropyl)phenyl]-2-(3-methylpyrazin-2-yl)-3-[rac-(2S,3S)-3-(fluoromethyl)-2-methyl-azetidine-1-carbonyl]-4H-pyrazolo[1,5-a]pyrimidin-7-one]
[1]
  TEAD1 TAZ HTRF combined: Max % Inhibition: 65.5%
  EC50: 110 nM
TEAD3 YAP50-100
  TEAD3 YAP50-100 HTRF combined: Max % Inhibition: 69.5%
  EC50: 150 nM
TEAD4 YAP50-100
  TEAD4 YAP50-100 HTRF combined: Max % Inhibition: 58.5%
  EC50: 100 nM
[2]
  TEAD3 TAZ HTRF combined: Max % Inhibition: 59.5%
  EC50: 160 nM
[3]
  TEAD4 TAZ HTRF combined: Max % Inhibition: 56.0%
  EC50: 80 nM
[4]
  TEAD2 TAZ HTRF combined: Max % Inhibition: 68.5%
  EC50: 20 nM
TEAD1 YAP50-100
  TEAD1 YAP50-100 HTRF combined: Max % Inhibition: 74.0%
  EC50: 120 nM
TEAD2 YAP50-100
  TEAD2 YAP50-100 HTRF combined: Max % Inhibition: 67.0%
  EC50: 20 nM

## CC1CCN1C(=O)c1nn2c(=O)cc(-c3ccc(C4CCCCC4)cc3)[nH]c2c1C(=O)N1CC(CF)C1 (single isomer, unassigned) [Enantiomer A, Example 33, 5-(4-Cyclohexylphenyl)-3-(3-(fluoromethyl)azetidine-1-carbonyl)-2-(2-methylazetidine-1-carbonyl)pyrazolo[1,5-a]pyrimidin-7(4H)-one]
[1]
  TEAD1 TAZ HTRF combined: Max % Inhibition: 61.5%
  EC50: 100 nM
TEAD3 YAP50-100
  TEAD3 YAP50-100 HTRF combined: Max % Inhibition: 71.5%
  EC50: 180 nM
TEAD4 YAP50-100
  TEAD4 YAP50-100 HTRF combined: Max % Inhibition: 48.5%
  EC50: 460 nM
[2]
  TEAD3 TAZ HTRF combined: Max % Inhibition: 58.5%
  EC50: 210 nM
[3]
  TEAD4 TAZ HTRF combined: Max % Inhibition: 41.5%
  EC50: 410 nM
[4]
  TEAD2 TAZ HTRF combined: Max % Inhibition: 63.0%
  EC50: 20 nM
TEAD1 YAP50-100
  TEAD1 YAP50-100 HTRF combined: Max % Inhibition: 71.0%
  EC50: 70 nM
TEAD2 YAP50-100
  TEAD2 YAP50-100 HTRF combined: Max % Inhibition: 67.5%
  EC50: 20 nM

## C[C@H](CO)c1nn2c(=O)cc(-c3ccc(C4CCCCC4)cc3)[nH]c2c1C(=O)N1CC(CF)C1 (single isomer, unassigned) [Enantiomer A, Example 55]
[1]
  TEAD1 TAZ HTRF combined: Max % Inhibition: 44.0%
  EC50: 110 nM
TEAD3 YAP50-100
  TEAD3 YAP50-100 HTRF combined: Max % Inhibition: 69.5%
  EC50: 100 nM
TEAD4 YAP50-100
  TEAD4 YAP50-100 HTRF combined: Max % Inhibition: 42.0%
  EC50: 500 nM
[2]
  TEAD3 TAZ HTRF combined: Max % Inhibition: 59.5%
  EC50: 110 nM
[3]
  TEAD4 TAZ HTRF combined: Max % Inhibition: 32.0%
  EC50: 460 nM
[4]
  TEAD2 TAZ HTRF combined: Max % Inhibition: 51.5%
  EC50: 10 nM
TEAD1 YAP50-100
  TEAD1 YAP50-100 HTRF combined: Max % Inhibition: 62.0%
  EC50: 80 nM
TEAD2 YAP50-100
  TEAD2 YAP50-100 HTRF combined: Max % Inhibition: 61.5%
  EC50: 10 nM

## O=C(c1c(C2CNCCO2)nn2c(=O)cc(-c3ccc(C4CCCCC4)cc3)[nH]c12)N1CC(CF)C1 (single isomer, unassigned) [Enantiomer A, Example 63, 5-(4-Cyclohexylphenyl)-3-[3-(fluoromethyl)azetidine-1-carbonyl]-2-morpholin-2-yl-4H-pyrazolo[1,5-a]pyrimidin-7-one]
[1]
  TEAD1 TAZ HTRF combined: Max % Inhibition: 55.5%
  EC50: 130 nM
TEAD3 YAP50-100
  TEAD3 YAP50-100 HTRF combined: Max % Inhibition: 62.0%
  EC50: 180 nM
TEAD4 YAP50-100
  TEAD4 YAP50-100 HTRF combined: Max % Inhibition: 40.0%
  EC50: 1600 nM
[2]
  TEAD3 TAZ HTRF combined: Max % Inhibition: 55.5%
  EC50: 200 nM
[3]
  TEAD4 TAZ HTRF combined: Max % Inhibition: 30.5%
  EC50: 1550 nM
[4]
  TEAD2 TAZ HTRF combined: Max % Inhibition: 66.0%
  EC50: 40 nM
TEAD1 YAP50-100
  TEAD1 YAP50-100 HTRF combined: Max % Inhibition: 66.0%
  EC50: 140 nM
TEAD2 YAP50-100
  TEAD2 YAP50-100 HTRF combined: Max % Inhibition: 66.0%
  EC50: 40 nM

## CC1CCN1C(=O)c1nn2c(=O)cc(-c3ccc(C4CCCCC4)cc3)[nH]c2c1C(=O)N1CC(CF)C1 (single isomer, unassigned) [Enantiomer B, Example 33, 5-(4-Cyclohexylphenyl)-3-(3-(fluoromethyl)azetidine-1-carbonyl)-2-(2-methylazetidine-1-carbonyl)pyrazolo[1,5-a]pyrimidin-7(4H)-one]
[1]
  TEAD1 TAZ HTRF combined: Max % Inhibition: 64.0%
  EC50: 100 nM
TEAD3 YAP50-100
  TEAD3 YAP50-100 HTRF combined: Max % Inhibition: 69.0%
  EC50: 150 nM
TEAD4 YAP50-100
  TEAD4 YAP50-100 HTRF combined: Max % Inhibition: 49.0%
  EC50: 670 nM
[2]
  TEAD3 TAZ HTRF combined: Max % Inhibition: 58.5%
  EC50: 200 nM
[3]
  TEAD4 TAZ HTRF combined: Max % Inhibition: 37.5%
  EC50: 570 nM
[4]
  TEAD2 TAZ HTRF combined: Max % Inhibition: 68.0%
  EC50: 20 nM
TEAD1 YAP50-100
  TEAD1 YAP50-100 HTRF combined: Max % Inhibition: 72.0%
  EC50: 80 nM
TEAD2 YAP50-100
  TEAD2 YAP50-100 HTRF combined: Max % Inhibition: 72.0%
  EC50: 20 nM

## C[C@@H](CO)c1nn2c(=O)cc(-c3ccc(C4CCCCC4)cc3)[nH]c2c1C(=O)N1CC(CF)C1 (single isomer, unassigned) [Enantiomer B, Example 55]
[1]
  TEAD1 TAZ HTRF combined: Max % Inhibition: 45.5%
  EC50: 90 nM
TEAD3 YAP50-100
  TEAD3 YAP50-100 HTRF combined: Max % Inhibition: 61.5%
  EC50: 80 nM
TEAD4 YAP50-100
  TEAD4 YAP50-100 HTRF combined: Max % Inhibition: 36.5%
  EC50: 200 nM
[2]
  TEAD3 TAZ HTRF combined: Max % Inhibition: 53.5%
  EC50: 100 nM
[3]
  TEAD4 TAZ HTRF combined: Max % Inhibition: 27.0%
  EC50: 140 nM
[4]
  TEAD2 TAZ HTRF combined: Max % Inhibition: 57.0%
  EC50: 20 nM
TEAD1 YAP50-100
  TEAD1 YAP50-100 HTRF combined: Max % Inhibition: 71.0%
  EC50: 80 nM
TEAD2 YAP50-100
  TEAD2 YAP50-100 HTRF combined: Max % Inhibition: 64.0%
  EC50: 10 nM
